Experimental data reported in patent publication US10682323B2, “Therapeutic agent for glaucoma” (TOA EIYO LTD., priority 2016, dated 2020).

Experiments:
[1] = Determination of Log D value (flask shaking method); type: physicochemical; details: pH 6.8; partition between n-octanol and second solution for the disintegration test (16th revised Japanese Pharmacopoeia), room temperature
Experimental: More specifically, the Log D is more preferably 1.6 or more and 2.3 or less, still more preferably 1.8 or more and 2.2 or less, and particularly preferably 1.8 or more and 2.1 or less. Here, the Log D value in the present invention is a compound partition coefficient between n-octanol and a second solution of a disintegration test of the 16th revised Japanese Pharmacopoeia.
The Log D value was determined using a flask shaking method, where a test compound partition coefficient between n-octanol and the second solution for the disintegration test defined in the 16th revised Japanese Pharmacopoeia was calculated. Specifically, in a microtube containing 2 mg of the test compound, n-octanol (0.25 mL) and the second solution for the disintegration test (0.25 mL) were mixed. The tube was shaken in a multi shaker at room temperature for 60 minutes, and allowed to stand until the two phases were completely separated. In the microtube, 10 μL of an n-octanol phase was diluted with 190 μL of 85% methanol and mixed, thereby obtaining an organic phase test solution. 100 μL of the second solution phase for the disintegration test was diluted with 100 μL of 50% methanol, and mixed, thereby obtaining an aqueous phase test solution. The organic phase test solution and the aqueous phase test solution were filtered, respectively, and the concentration of the test compound in these test solutions were measured, using high performance liquid chromatography. Then, from the measured concentration and dilution rate, the Log D was calculated.
That is, the Log D of the present specification is represented by the following equation: Log D=Log10([concentration of test compound in organic phase test solution]/[concentration of test compound in aqueous phase test solution])+1 [Equation 1]
The second solution for the disintegration test herein refers to, as defined in the 16th revised Japanese Pharmacopoeia, a liquid obtained by adding to 250 mL of a 0.2 mol/L potassium dihydrogenphosphate reagent, 118 mL of a 0.2 mol/L sodium hydroxide reagent, and water for adjusting to 1000 mL volume.

[2] = target: T1, human sGC (Homo sapiens, UniProt Q02153); experiment: Measurement of sGC activating effect in CHO-K1 cells stably expressing human sGC and mouse CNGA2; type: cell-based; details: CHO-K1 cells expressing human sGC and mouse CNGA2, Fura2 calcium readout, 10 μmol/L ODQ in assay buffer
T1 construct: expressed in transfected cells; host or cells: CHO-K1 cells (Chinese hamster ovary), stably co-expressing mouse CNGA2 as the calcium read-out channel
T1 sequence (Q02153 1-619): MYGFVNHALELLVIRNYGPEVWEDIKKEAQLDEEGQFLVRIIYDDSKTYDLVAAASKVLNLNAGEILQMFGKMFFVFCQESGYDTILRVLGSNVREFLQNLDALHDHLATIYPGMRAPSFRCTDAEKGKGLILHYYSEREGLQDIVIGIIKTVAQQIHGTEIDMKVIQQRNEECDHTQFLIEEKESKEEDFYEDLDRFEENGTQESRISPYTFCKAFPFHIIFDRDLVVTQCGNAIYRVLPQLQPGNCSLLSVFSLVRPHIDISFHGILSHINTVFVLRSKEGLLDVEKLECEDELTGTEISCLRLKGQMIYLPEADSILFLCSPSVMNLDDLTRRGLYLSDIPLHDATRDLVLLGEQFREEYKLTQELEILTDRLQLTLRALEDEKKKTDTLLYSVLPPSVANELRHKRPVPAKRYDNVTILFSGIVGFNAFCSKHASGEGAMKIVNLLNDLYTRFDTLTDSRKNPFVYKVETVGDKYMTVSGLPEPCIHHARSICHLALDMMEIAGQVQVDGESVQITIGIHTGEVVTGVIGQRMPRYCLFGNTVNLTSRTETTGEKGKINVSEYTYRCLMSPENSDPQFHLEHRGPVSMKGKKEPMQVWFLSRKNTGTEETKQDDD
T1 sequence (Q02108 1-690 partner): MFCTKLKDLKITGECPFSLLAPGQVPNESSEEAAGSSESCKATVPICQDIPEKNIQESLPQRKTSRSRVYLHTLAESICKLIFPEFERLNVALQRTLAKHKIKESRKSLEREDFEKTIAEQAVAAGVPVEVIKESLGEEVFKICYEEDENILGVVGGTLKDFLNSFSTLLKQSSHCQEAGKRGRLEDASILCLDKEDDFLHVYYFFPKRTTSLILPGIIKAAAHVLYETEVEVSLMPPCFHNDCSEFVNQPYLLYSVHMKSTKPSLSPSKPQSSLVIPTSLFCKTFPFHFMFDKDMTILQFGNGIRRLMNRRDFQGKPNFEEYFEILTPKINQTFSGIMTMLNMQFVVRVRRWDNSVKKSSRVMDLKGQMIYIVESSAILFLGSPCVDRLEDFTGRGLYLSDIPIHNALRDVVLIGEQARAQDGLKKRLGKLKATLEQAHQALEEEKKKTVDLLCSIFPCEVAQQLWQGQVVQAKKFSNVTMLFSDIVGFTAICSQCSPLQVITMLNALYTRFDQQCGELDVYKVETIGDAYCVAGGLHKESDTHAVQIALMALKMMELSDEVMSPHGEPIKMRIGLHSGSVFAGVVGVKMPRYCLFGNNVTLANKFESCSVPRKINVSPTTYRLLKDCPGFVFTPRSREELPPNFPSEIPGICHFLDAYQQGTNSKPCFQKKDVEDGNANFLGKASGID
Experimental: Chinese Hamster ovary cells (CHO-K1 cells) modified for stably expressing human sGC α subunit and β subunit, and a mouse cyclic nucleotide gated channel (CNGA2) were used in the test.
The CHO-K1 cells stably expressing human sGC and mouse CNGA2 were cultured at 37° C. in a F-12 medium supplemented with 10% (v/v) fetal bovine serum (FBS), penicillin (100 U/mL), streptomycin (100 μg/mL), G418 (250 μg/mL), and Zeocin (250 μg/mL). The cells were suspended in a culture medium, seeded in a 96 well plate, and cultured at 37° C. for 24 hours. The cells were washed with an assay buffer 1 (140 mmol/L of sodium chloride, 5 mmol/L of potassium chloride, 0.5 mmol/L of magnesium chloride, 0.01 mmol/L of calcium chloride, 10 mmol/L of glucose, 0.4 mmol/L of magnesium sulfate, 10 mmol/L of 4-(2-hydroxyethyl)piperazine-1-yl ethanesulfonic acid, 125 μmol/L of sulfinpyrazone, pH 7.4), and then an indicator solution in which Fura2-AM as a fluorescent Ca2+ indicator is dissolved in assay buffer 1 at a concentration of 5 μmol/L was added thereto, and cultured at 37° C. for 60 minutes. The culture medium was removed, the cells were washed with assay buffer 1, the test compound solution was added thereto, and cultured at room temperature for 10 minutes. The plate was mounted on a fluorescence microplate reader (FlexStation II, available from Molecular Devices) with setting of excitation wavelengths of 340 and 380 nm and a detection wavelength of 510 nm, an intracellular calcium concentration was measured as a fluorescent intensity ratio obtained from each excitation wavelength.
In this test, the solution of the test compound was prepared by dissolving each test compound in DMSO at a concentration of 10 mmol/L, and then diluting the solution with assay buffer 2 (140 mmol/L of sodium chloride, 5 mmol/L of potassium chloride, 0.5 mmol/L of magnesium chloride, 1 mmol/L of calcium chloride, 10 mmol/L of glucose, 0.4 mmol/L of magnesium sulfate, 10 mmol/L of 4-(2-hydroxyethyl)piperazine-1-yl ethanesulfonic acid, 125 μmol/L of sulfinpyrazone, 100 μmol/L of isobutylmethylxanthine, 10 μmol/L of 1H-[1,2,4]-oxadiazole [4,3-a]quinoxaline-1-on (hereinafter, referred to as ODQ), pH 7.4), in order to adjust the concentration of 10 μmol/L for testing. As a control solution, a DMSO diluted solution was used, instead of the test compound solution.
The activity of the test compound was calculated as an increase rate (%) of the sGC activity in the test compound solution relative to the sGC activity in the control solution, by dividing a fluorescent intensity ratio in adding the test compound by a fluorescent intensity ratio of the control solution, and subtracting the sGC activity in the control solution (100%) therefrom. An EC50 value was calculated from the activity of the test compound at concentrations of 0.0001, 0.001, 0.003, 0.01, 0.03, 0.1, 1, and 10 μmol/L, using a 4 parameter losgistic model from Assay Explorer (available from Dssault Systèmes BIOVIA).

logD [1] | EC50 [2] | Compound
1.99 | 2.35 nM | O=C(O)CCCCN(Cc1ccc(C(=O)O)cc1)C[C@H](OCc1ccc(CCc2ccccc2)cc1F)c1ccccc1 [Compound No. 3, (−)-4-([N-(4-carboxybutyl)-N-[(2R)-2-[2 fluoro-4-(2-phenylethyl)benzyloxy]-2-phenylethyl]amino]methyl)benzoic acid]
1.99 | 7.5 nM | O=C(O)CCCCN(CCc1ccccc1OC[C@@H]1CCc2ccccc2C1)C1CCCc2cc(C(=O)O)ccc21 (stereo partly drawn) [Compound No. 16, 5-[N-(4-carboxybutyl)-N-[2-[2-((2R)-1,2,3,4-tetrahydronaphthalene-2-ylmethoxy)phenyl]ethyl]amino]-5,6,7,8-tetrahydronaphthalene-2-carboxylic acid]
2.18 | 8.86 nM | O=C(O)CCCCN(CCc1ccccc1OCc1ccc(COc2ccccc2)cc1)C1CCCc2cc(C(=O)O)ccc21 (centres unmarked) [Compound No. 22, 5-[N-(4-carboxybutyl)-N-[2-[2-(4-phenoxymethylbenzyloxy)phenyl]ethyl]amino]-5,6,7,8-tetrahydronaphthalene-2-carboxylic acid]
2.14 | 2.9 nM | O=C(O)CCCCN(CCc1ccccc1OCc1ccc2c(c1)CCCC2)C1CCOc2cc(C(=O)O)ccc21 (centres unmarked) [Compound No. 18, 4-[N-(4-carboxybutyl)-N-[2-[2-(1,2,3,4-tetrahydronaphthalene-6-ylmethoxy)phenyl]ethyl]amino]-chromane-7-carboxylic acid]
2.19 | 26.5 nM | O=C(O)CCCCN(Cc1ccc(C(=O)O)cc1)CC(OCc1ccc(CCc2ccccc2)cc1)c1ccc(F)cc1 (centres unmarked) [Compound No. 13, 4-([N-(4-carboxybutyl)-N-[2-(4-fluorophenyl)-2-[4-(2-phenylethyl)benzyloxy]ethyl]amino]methyl)benzoic acid]
1.94 | 1.99 nM | O=C(O)CCCCN(Cc1ccc(C(=O)O)cc1)C[C@H](OCc1cccc(CCc2ccccc2)c1)c1ccccc1 [Compound No. 11, (−)-4-([N-(4-carboxybutyl)-N-[(2R)-2-[3-(2-phenylethyl)benzyloxy]-2-phenylethyl]amino]methyl)benzoic acid]
2.06 | 15.9 nM | O=C(O)CCCCN(CCc1ccccc1OCc1ccc(C#CC2CC2)cc1)C1CCCc2cc(C(=O)O)ccc21 (centres unmarked) [Compound No. 21, 5-[N-(4-carboxybutyl)-N-[2-[2-[4-(2-cyclopropylethynyl)benzyloxy]phenyl]ethyl]amino]-5,6,7,8-tetrahydronaphthalene-2-carboxylic acid]
1.8 | 1.61 nM | O=C(O)CCCCN(Cc1ccc(C(=O)O)cc1)C[C@H](OCc1ccc(CCc2ccccc2)s1)c1ccccc1 [Compound No. 4, (−)-4-[(N-(4-carboxybutyl)-N-[(2R)-2-[5-(2-phenylethyl)thiophene-2-ylmethoxy]-2-phenylethyl]amino)methyl]benzoic acid]
1.88 | 9.63 nM | CC(C)c1ccc(COc2ccccc2CCN(CCCCC(=O)O)[C@H]2CCCc3cc(C(=O)O)ccc32)cc1 [Compound No. 10, (+)-(5S)—[N-(4-carboxybutyl)-N-[2-[2-(4-isopropylbenzyloxy)phenyl]ethyl]amino]-5,6,7,8-tetrahydronaphthalene-2-carboxylic acid]
2.03 | 8.8 nM | N#Cc1cccc([C@H](CN(CCCCC(=O)O)Cc2ccc(C(=O)O)cc2)OCc2ccc(CCc3ccccc3)cc2)c1 [Compound No. 1, (−)-4-([N-(4-carboxybutyl)-N-[(2R)-2-(3-cyanophenyl)-2-[4-(2-phenylethyl)benzyloxy]ethyl]amino]methyl)benzoic acid]
2.4 | 8.73 nM | O=C(O)CCCCN(CCc1ccccc1OCc1ccc(OCc2ccccc2)cc1)C1CCOc2cc(C(=O)O)ccc21 (centres unmarked) [Compound No. 24, 4-[N-[2-[2-(4-benzyloxybenzyloxy)phenyl]ethyl]-N-(4-carboxybutyl)amino]-chromane-7-carboxylic acid]
2.09 | 7.09 nM | CC(C)(C)c1cccc(COc2ccccc2CCN(CCCCC(=O)O)[C@H]2CCCc3cc(C(=O)O)ccc32)c1 [Compound No. 9, (+)-(5S)-5-[N-[2-[2-(3-tert-butylbenzyloxy)phenyl]ethyl]-N-(4-carboxybutyl)amino]-5,6,7,8-tetrahydronaphthalene-2-carboxylic acid]
2.17 | 6.49 nM | O=C(O)CCCCN(Cc1ccc(C(=O)O)cc1)C[C@H](OCc1ccc(Oc2ccc(Cl)cc2)cc1)c1ccccc1 [Compound No. 5, (−)-4-([N-(4-carboxybutyl)-N-[(2R)-2-[4-(4-chlorophenyloxy)benzyloxy]-2-phenylethyl]amino]methyl)benzoic acid]
